# Positions count from the first letter of the chain named. “And” between values parts separate entries of the source, which are not always exact repeats. Equal values may be shown once.
# Tests used:
# Assay type in all cases: cell-based
# [1] = biological target: T1, THIK-1 R92A (Homo sapiens, UniProt Q9HB14, R92A); assay: Inside-out excised patch recordings, oocytes, THIK-1 R92A mutant (lipid activation); conditions: THIK-1 R92A
# T1 construct: expressed in transfected cells; host or cells: Xenopus oocytes (mRNA injection)
# T1 sequence (Q9HB14 1-408 R92A): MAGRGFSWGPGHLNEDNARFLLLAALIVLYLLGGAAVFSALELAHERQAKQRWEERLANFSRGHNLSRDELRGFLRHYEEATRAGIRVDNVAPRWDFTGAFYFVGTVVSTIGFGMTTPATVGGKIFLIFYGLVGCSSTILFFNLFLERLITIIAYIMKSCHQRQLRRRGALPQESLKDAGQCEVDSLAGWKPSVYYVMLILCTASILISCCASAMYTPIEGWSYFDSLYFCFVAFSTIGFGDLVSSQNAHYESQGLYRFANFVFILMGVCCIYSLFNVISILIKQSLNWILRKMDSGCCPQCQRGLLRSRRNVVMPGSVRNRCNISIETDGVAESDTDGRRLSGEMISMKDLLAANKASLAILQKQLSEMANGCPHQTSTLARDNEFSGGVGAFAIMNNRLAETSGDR
# Description: (§1) Human K2P13.1 THIK-1 (GenBank accession number: NM_022054) and human K2P12.1 THIK-2 (NM_022055.1) were used in this study. For functional expression studies, the respective K^+ channel subtype coding sequences were subcloned into the oocyte expression vector pSGEM or the dual-purpose expression vector pFAW[41] and verified by sequencing. All mutant channels were obtained by site-directed mutagenesis and verified by sequencing. To increase surface expression and macroscopic currents, measurements of THIK-2 channels used a mutated ER retention motif, (R11A R12A R14A R15A R16A; THIK-2*)[20]. Vector DNA was linearized with NheI or MluI, and mRNA was synthesized in vitro using the SP6 or T7 AmpliCap Max High Yield Message Maker Kit (Cellscript, USA) or HiScribe T7 ARCA mRNA Kit (New England Biolabs).
# (§2) Two-electrode voltage–clamp (TEVC) studies were performed in Xenopus oocytes. All animal use conformed to the Guide for the Care and Use of Laboratory Animals (NIH Publication 85–23), and all experiments using Xenopus toads were approved by the local ethics panels. Oocytes were stored at 17 °C in ND96 recording solution composed of (in mM): 96 NaCl, 2 KCl, 1.8 CaCl2, 1 MgCl2, 5 HEPES (pH 7.5 adjusted with NaOH and HCl), supplemented with Na-pyruvate (275 mg L^–1), theophylline (90 mg L^–1) and gentamicin (50 mg L^–1). Oocytes were injected with 1 ng mRNA for WT or mutant channels, and were incubated for 24–48 h at 17 °C. Two-electrode voltage clamp recordings were then performed as previously described[42],[43]. For macroscopic patch–clamp measurements, oocytes were obtained as described above incubated at 17 °C in a solution containing (mM): 54 NaCl, 30 KCl, 2.4 NaHCO3, 0.82 MgSO4 ×7 H2O, 0.41 CaCl2, 0.33 Ca(NO3)2 ×4 H2O and 7.5 TRIS (pH 7.4 adjusted with NaOH and HCl) for 1–4 days before use. Excised patch recordings in inside-out configuration conditions were performed at room temperature. Patch pipettes were made from thick-walled borosilicate glass GB 200TF-8P (Science Products), had resistances of 0.2–0.5 MΩ (tip diameter, 10–25 µm) and filled with a pipette solution (in mM): 120 KCl, 10 HEPES and 3.6 CaCl2 (pH 7.4 adjusted with KOH and HCl). Intracellular bath solutions and compounds were applied to the cytoplasmic side of excised patches for the various K^+ channels through a gravity flow multi-barrel pipette system. The intracellular solution had the following composition (in mM): 120 KCl, 10 HEPES, 2 EGTA and 1 pyrophosphate (pH adjusted with KOH and HCl). Currents were recorded with an EPC10 amplifier (HEKA Electronics) and sampled at 10 kHz or higher, with filtering set to 3 kHz (–3 dB) or higher, as appropriate for sampling rate. For measurements of GPCR activation, whole-cell currents were recorded for THIK-1 in transiently transfected HEK-293 cells. Cells were stimulated by a ramp protocol between −100 and +60 mV (holding potential, −80 mV). The pipette solution was composed of (in mM): 140 KCl, 2 MgCl2, 1 CaCl2, 2.5 EGTA and 10 HEPES (pH 7.3 adjusted with KOH and HCl). The extracellular bath solution had the following composition (in mM): 135 NaCl, 5 KCl, 2 MgCl2, 2 CaCl2, 10 glucose and 10 HEPES pH (pH 7.3 adjusted with NaOH and HCl). Oxotremorine M (Oxo-M) was added to extracellular bath solution to obtain the final concentration. Single-channel currents were recorded with an Axopatch 200B amplifier through a Digidata 1440A digitizer (Molecular Devices). Data were filtered at 2 kHz and recorded at a 200-kHz sampling rate with the program Clampex (Molecular Devices). Pipette solution and bath solution for cell-attached recordings contained (in mM): 140 KCl, 2 MgCl2, 1 CaCl2 and 10 HEPES (pH 7.4 adjusted with KOH and HCl). For inside-out recordings, the bath solution contained (in mM): 140 KCl, 2 MgCl2, 1 CaCl2 and 10 HEPES (pH 7.2 adjusted with KOH and HCl). All experiments were conducted at room temperature. […]
# [2] = biological target: T2, THIK-1 F262A (Homo sapiens, UniProt Q9HB14, F262A); assay: Inside-out excised patch recordings, oocytes, THIK-1 F262A mutant (lipid activation); conditions: THIK-1 F262A
# T2 construct: expressed in transfected cells; host or cells: Xenopus oocytes (mRNA injection)
# T2 sequence (Q9HB14 1-408 F262A): T1 sequence (Q9HB14 1-408 R92A) with A92R, F262A
# Description: as §1, §2
# [3] = biological target: T3, Human K2P13.1 THIK-1 (WT) (Homo sapiens, UniProt Q9HB14); assay: Macroscopic inside-out excised patch recordings from Xenopus oocytes expressing WT THIK-1; compounds applied to the intracellular side; conditions: for extent of activation by oleoyl-CoA: 5 µM oleoyl-CoA; for Fold activation: 5.0 µM oleoyl-CoA
# T3 construct: expressed in transfected cells; host or cells: Xenopus oocytes (mRNA injection)
# T3 sequence (Q9HB14 1-408): T1 sequence (Q9HB14 1-408 R92A) with A92R
# Description: as §1, §2
structure (smiles),measurement,setting,value
CCCCCCCC/C=C\CCCCCCCC(=O)SCCNC(=O)CCNC(=O)[C@H](O)C(C)(C)COP(=O)(O)OP(=O)(O)OC[C@H]1O[C@@H](n2cnc3c(N)ncnc32)[C@H](O)[C@@H]1OP(=O)(O)O [oleoyl-CoA],Fold activation with 5.0 µM oleoyl-CoA,[1]; individual recordings,19.660 and 15.940 and 13.100 and 29.730 and 21.570 and 18.010
same,Fold activation with 5.0 µM oleoyl-CoA,[1]; mean,19.67
same,Fold activation with 5.0 µM oleoyl-CoA,[2]; individual recordings,16.700 and 14.500 and 16.910 and 15.530 and 18.460 and 22.210
same,Fold activation with 5.0 µM oleoyl-CoA,[2]; mean,17.39
same,extent of activation by oleoyl-CoA,[3]; WT,14 ± 1 fold
same,extent of activation by oleoyl-CoA,[3]; WT preinhibited with halothane (15.2 mM),8 ± 2 fold
same,Fold activation,"[3]; WT, Halothane pre-inhibited (15.2 mM halothane), individual recordings",8.238 and 0.783 and 13.259 and 5.975 and 16.259 and 6.147 and 12.474 and 4.311
same,Fold activation,"[3]; WT, Halothane pre-inhibited (15.2 mM halothane), mean",8.43
same,Fold activation,"[3]; WT, absence of halothane, mean",13.60
same,Fold activation with 5.0 µM oleoyl-CoA,"[3]; THIK-1 WT, mean",13.60
